Converted amounts (≈) assume the structure as drawn. One block for each compound: values may come before it.
Key:
Plasmodium falciparum [1] = assay: Antimalarial activity against CQ-sensitive Plasmodium falciparum 3D7 at trophozoite stage infected in O+ human erythrocytes assessed as parasite growth inhibition in presence of 2.97 uM thiamine by SYBR staining based analysis; assay type: functional, organism-based; conditions: 3D7, Erythrocyte
Plasmodium falciparum [2] = assay: Antimalarial activity against CQ-sensitive Plasmodium falciparum 3D7 at trophozoite stage infected in O+ human erythrocytes assessed as parasite growth inhibition in presence of 297 uM thiamine by SYBR staining based analysis; assay type: functional, organism-based; conditions: 3D7, Erythrocyte
Plasmodium falciparum [3] = assay: Antimalarial activity against Plasmodium falciparum D6; assay type: functional, organism-based
Plasmodium falciparum [4] = assay: Antimalarial activity against Plasmodium falciparum W2; assay type: functional, organism-based
Plasmodium falciparum [5] = assay: Antimalarial activity against CQ-sensitive Plasmodium falciparum 3D7 infected in O+ human RBCs assessed as parasite growth inhibition by SYBR Green I staining based assay; assay type: functional, organism-based; conditions: 3D7, Erythrocyte
Plasmodium falciparum [6] = assay: Antimalarial activity against CQ-resistant Plasmodium falciparum RKL9 infected in O+ human RBCs assessed as parasite growth inhibition by SYBR Green I staining based assay; assay type: functional, organism-based; conditions: RKL9, Erythrocyte
Plasmodium falciparum [7] = assay: Antiplasmodial activity against CQ-resistant Plasmodium falciparum W2 assessed as parasite growth inhibition incubated for 72 hrs by SYBR Green I staining based analysis; assay type: functional, organism-based; conditions: W2, 72 h
[8] = Cytotoxicity against African green monkey Vero cells assessed as cell growth inhibition incubated for 24 hrs by fluorescence based assay; assay type: toxicity; conditions: African green monkey (Chlorocebus sabaeus)
Plasmodium falciparum [9] = assay: Antiplasmodial activity against CQ-susceptible Plasmodium falciparum 3D7 assessed as parasite growth inhibition incubated for 72 hrs by SYBR Green I staining based analysis; assay type: functional, organism-based; conditions: 3D7, 72 h
Plasmodium falciparum [10] = assay: Antimalarial activity against Plasmodium falciparum 3D7 by SYBR green dye based analysis; assay type: functional, organism-based
Plasmodium falciparum [11] = assay: Antimalarial activity against Plasmodium falciparum 3D7 assessed as parasite growth inhibition; assay type: functional, organism-based
Plasmodium falciparum [12] = assay: Antimalarial activity against Plasmodium falciparum K1 assessed as parasite growth inhibition; assay type: functional, organism-based
Plasmodium falciparum [13] = assay: Antimalarial activity against Plasmodium falciparum NF54 infected in human erythrocytes assessed as inhibition of parasitemia by giemsa staining based analysis; assay type: functional, organism-based; conditions: NF54, Erythrocyte
Plasmodium falciparum [14] = assay: Antiplasmodial activity against CQ-sensitive Plasmodium falciparum NF54 at asexual erythrocyte stage by LDH assay; assay type: functional, organism-based
Plasmodium falciparum [15] = assay: Antiplasmodial activity against CQ-resistant Plasmodium falciparum K1 at asexual erythrocyte stage by LDH assay; assay type: functional, organism-based
Plasmodium falciparum [16] = assay: Antiplasmodial activity against Plasmodium falciparum 3D7 at asexual erythrocytic stage infected in human erythrocytes assessed as parasite growth inhibition incubated for 42 hrs by [3H]-hypoxanthine incorporation assay; assay type: functional, organism-based; conditions: 3D7, Erythrocyte
[17] = Cytotoxicity against human Huh-7 cells by MTT assay; assay type: toxicity, cell-based
Plasmodium knowlesi = assay: Antimalarial activity against Plasmodium knowlesi A1H1; assay type: functional, organism-based
[18] = Cytotoxicity against African green monkey Vero cells after 72 hrs by MTT assay; assay type: toxicity, cell-based; conditions: chlorocebus sabaeus
Plasmodium falciparum [19] = assay: Antimalarial activity against Plasmodium falciparum 3D7 infected in A+ human erythrocytes assessed as reduction in parasite growth incubated for 72 hrs by SYBR Green I staining based analysis; assay type: functional, organism-based; conditions: 3D7, Erythrocyte
[20] = Cytotoxicity against human erythrocytes; assay type: toxicity, cell-based, Erythrocyte
Plasmodium falciparum [21] = assay: Antimalarial activity against Plasmodium falciparum Dd2 infected in A+ human erythrocytes assessed as reduction in parasite growth incubated for 72 hrs by SYBR Green I staining based analysis; assay type: functional, organism-based; conditions: Dd2, Erythrocyte

SMILES: Cc1ncc(Cn2cc(CCOC(=O)c3cccc(Cl)c3)nn2)c(N)n1
IC50 (Plasmodium falciparum [1]): 62 µM
IC50 (Plasmodium falciparum [2]): 79 µM

SMILES: Cc1ncc(Cn2cc(CCOC(=O)c3ccccc3)nn2)c(N)n1
IC50 (Plasmodium falciparum [2]): > 200 µM

IC50 (Plasmodium falciparum [3]): 11.2 µM
IC50 (Plasmodium falciparum [4]): 6.67 µM
SMILES: CCCCCCCCCn1cc(C(=O)OC)nn1

IC50 (Plasmodium falciparum [3]): 13.3 µM
IC50 (Plasmodium falciparum [4]): 6.63 µM
SMILES: CCCCCCCn1cc(CO)nn1

SMILES: COc1ccccc1C(=O)/C=C/c1cn(Cc2cn(-c3ccnc4cc(Cl)ccc34)nn2)c2ccccc12
IC50 (Plasmodium falciparum [5]): 2.44 µM
IC50 (Plasmodium falciparum [6]): 3.55 µM

SMILES: OB1OCc2cc(OCc3cn(CCN4CCN(c5ccnc6cc(Cl)ccc56)CC4)nn3)ccc21
IC50 (Plasmodium falciparum [7]): 4.86 µM
IC50 at 24 h [8]: 82.4 µM
IC50 (Plasmodium falciparum [9]): 5.31 µM

SMILES: Cc1ccccc1C(=O)/C=C/c1cn(Cc2cn(-c3ccnc4cc(Cl)ccc34)nn2)c2ccccc12
IC50 (Plasmodium falciparum [5]): 1.81 µM
IC50 (Plasmodium falciparum [6]): 2.72 µM

IC50 (Plasmodium falciparum [10]): 176 µM
SMILES: CCOC(=O)c1n[nH]c(-c2ccccn2)n1

SMILES: COc1cc(/C=C/C(=O)c2ccc(Cl)cc2)ccc1OCc1cn(-c2ccnc3cc(Cl)ccc23)nn1
IC50 (Plasmodium falciparum [11]): 4.12 µM
IC50 (Plasmodium falciparum [12]): 3.55 µM

IC50 (Plasmodium falciparum [13]): 42.6 µM
SMILES: Clc1ccc2c(Nc3nc[nH]n3)cccc2c1

SMILES: Clc1ccc2c(NCCn3cc(-c4ccnc(-c5ccccn5)c4)nn3)ccnc2c1
IC50 (Plasmodium falciparum [14]): 0.098 µM
IC50 (Plasmodium falciparum [15]): 0.275 µM

SMILES: COc1cc(/C=C/C(=O)c2cc3ccccc3oc2=O)ccc1OCc1cn(-c2ccnc3cc(Cl)ccc23)nn1
IC50 (Plasmodium falciparum [11]): > 5 µM
IC50 (Plasmodium falciparum [12]): > 5 µM

SMILES: Cc1cc(C)nc(NS(=O)(=O)c2ccc(-n3cc(COc4ccc([N+](=O)[O-])cc4)nn3)cc2)n1
IC50 (Plasmodium falciparum [16]): 6.2 µg/mL (≈ 12.9 µM)
CC50 [17]: 7.5 µg/mL (≈ 15.6 µM)

EC50 (Plasmodium knowlesi): 28.9 µM
SMILES: O=C1CC(c2n[nH]c(=S)n2-c2ccccc2)CN1Cc1ccccc1 (centres undefined)

SMILES: OB1OCc2cc(OCc3cn(CCNc4ccnc5cc(Cl)ccc45)nn3)ccc21
IC50 (Plasmodium falciparum [7]): 3.78 µM
IC50 at 24 h [8]: > 100 µM
IC50 (Plasmodium falciparum [9]): 4.15 µM

SMILES: C[C@@H]1CC[C@H]2[C@@H](C)C(=O)O[C@@H]3O[C@@]4(C)CC[C@@H]1[C@]32OO4 [ARTEMISININ]
IC50 (Plasmodium falciparum [4]): 0.094 µM

SMILES: CCN(CC)CCCC(C)Nc1ccnc2cc(Cl)ccc12 (centres undefined) [CHLOROQUINE]
CC50 at 72 h [18]: 112 µM
EC50 (Plasmodium knowlesi): 0.21 µM
EC50 (Plasmodium falciparum [19]): 0.0127 µM
CC50 [20]: > 100 µg/mL
EC50 (Plasmodium falciparum [21]): 0.166 µM

Reference: ChEMBL document CHEMBL5512597, “Triazole hybrid compounds: A new frontier in malaria treatment” (Eur J Med Chem, 2023)
